# Results from ChEMBL document CHEMBL1201862, “PubChem BioAssay data set” (2004).
# Activity calls are given as the source filed them.
# Experiments:
# [1] = biological target: T1, Oxysterols receptor LXR-beta (Homo sapiens, UniProt P55055); experiment: LXR agonists, Gal4 luciferase reporter, dose response, counter-screen for ssDAF-12 agonist project, cell-based, luminescence, HEK293, S. stercoralis campaign (AID 720737); assay type: functional; conditions: read-out: IC50 (the source's name)
# T1 sequence (P55055 whole entry): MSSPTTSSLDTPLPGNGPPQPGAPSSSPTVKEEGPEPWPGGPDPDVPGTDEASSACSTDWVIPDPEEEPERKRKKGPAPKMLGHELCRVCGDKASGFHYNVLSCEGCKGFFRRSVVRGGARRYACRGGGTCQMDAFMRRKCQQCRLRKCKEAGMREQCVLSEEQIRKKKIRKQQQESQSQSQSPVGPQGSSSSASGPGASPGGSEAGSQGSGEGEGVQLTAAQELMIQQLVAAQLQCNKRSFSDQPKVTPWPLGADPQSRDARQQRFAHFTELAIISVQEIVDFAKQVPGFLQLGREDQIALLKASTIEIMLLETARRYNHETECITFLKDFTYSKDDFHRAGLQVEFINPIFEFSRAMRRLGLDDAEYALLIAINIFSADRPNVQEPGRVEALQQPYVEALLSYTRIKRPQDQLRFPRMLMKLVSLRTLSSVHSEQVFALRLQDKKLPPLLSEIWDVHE
# [2] = Luminescence-based cell-based high throughput dose response assay to identify activators of the DAF-12 from the parasite S. stercoralis (ssDAF-12).; assay type: functional
# Prothrombin = Prothrombin (Homo sapiens, UniProt P00734); experiment: Thrombin 1536 HTS Dose Response Confirmation. [Related pubchem assays: 1046 (Thrombin 1536 HTS; hits were confirmed in this assay)]; assay type: functional
# [3] = cytotoxicity toward Colo320 cells – cell-based, CellTiter-Glo luminescence, IC50, dose response (AID 1117334); assay type: functional; conditions: COLO 320
# [4] = Concentration-dependent survival of SW480 colon cancer line, luminescence detection with CellTiter-Glo, half-maximal inhibitory concentration (AID 1117338); assay type: functional
# [5] = CellTiter-Glo luminescent dose response of DLD-1 viability loss (AID 1117352); assay type: functional
# [6] = cytotoxicity toward HT-29 cells – cell-based, CellTiter-Glo luminescence, IC50, dose response (AID 1117330); assay type: functional
# [7] = cytotoxicity toward HCT116 cells – cell-based, CellTiter-Glo luminescence, IC50, dose response (AID 1117332); assay type: functional; conditions: HCT-116
# [8] = RKO cell viability reduction, dose response, CellTiter-Glo luminescence (AID 1117322); assay type: functional
# [9] = SNU-C1 cell viability reduction, dose response, CellTiter-Glo luminescence (AID 1117323); assay type: functional, cell-based
# cells [10] = experiment: cells
# [11] = cytotoxicity toward NIH3T3 fibroblasts, dose response, counter-screen, cell-based, ATP luminescence, mouse fibroblasts (AID 2010); assay type: functional;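 note: cells exposed to compound for about 90 hours before reading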
# [12] = inhibitors of intracellular T. cruzi replication, confirmation, NIH3T3 host cells, beta-gal luminescence (AID 2044); assay type: functional, cell-based;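 note: intracellular parasites grown in NIH/3T3 mouse fibroblasts as host cells; luminescent beta-galactosidase reporter signal from transgenic T. cruzi replicating inside host cells; inhibitors lower the luminescence signal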
# Beta-galactosidase = Beta-galactosidase (Escherichia coli, UniProt Q8VNN2); experiment: beta-galactosidase enzyme inhibitors and activators, dose response, artefact control for CCR6 antagonist project, biochemical, E. coli enzyme, set 3 (AID 504712); assay type: functional
# [13] = insulin promoter down-regulators in MIN6 cells, imaging, high-content screening, mouse beta cells (AID 1628); assay type: functional
# [14] = cytotoxicity in MIN6 insulinoma cells, dose response, cytotoxicity control, cell-based, mouse insulinoma (AID 2122); assay type: functional;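 note: confirmatory high-throughput counterscreen run to flag cytotoxic compounds; mouse MIN-6 beta cells carrying an insulin promoter eGFP reporter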
# [15] = control 3'UTR Renilla luciferase suppression, dose response, counter-screen for Shn3 inhibitor project, cell-based, Clone20-Shn3RL, cherry-picked (AID 624133); assay type: functional
# [16] = HepG2 cell cytotoxicity, dose response, cytotoxicity control for Shn3 inhibitor project, CellTiter-Glo, cherry-picked (AID 624134); assay type: functional, cell-based
# [17] = reduction of Shn3 3'UTR firefly luciferase signal, dose response, Schnurri-3 inhibitor project, cell-based, Clone20 osteoblasts, cherry-pick, set 2 (AID 720490); assay type: functional;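 note: actives lower the luminescence signal as inhibitors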
# [18] = Shn3 3'UTR reporter inhibitors, dose response, cell-based, Clone20 osteoblasts, firefly luciferase, cherry-picked (AID 624132); assay type: functional;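 note: firefly luciferase luminescence from reporter carrying the Shn3 3'UTR in osteoblasts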
# cells [19] = experiment: cells; remark: listed apart in the source
# [20] = biological target: T1, Oxysterols receptor LXR-beta; assay type: functional, cell-based
# [21] = biological target: Disintegrin and metalloproteinase domain-containing protein 17 (Homo sapiens, UniProt P78536); experiment: exosite inhibitors of ADAM17, dose response, biochemical (AID 743260)
# [22] = ADAM10 protease inhibitors, dose response, selectivity assay for ADAM17 exosite inhibitor project, biochemical, FRET peptide substrate, recombinant human ADAM10 (AID 743259);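 note: ADAM10 enzyme cleaving a FRET peptide substrate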
# [23] = PAX2 cell-based inhibition, dose response, selectivity assay for PAX8 inhibitor project, plate reader, dry powder samples (AID 743048); assay type: functional;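 note: HEK293 cells carrying a WT1 promoter luciferase reporter driven by expressed Pax2; potency is for inhibition of Pax2 driven reporter signal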
# [24] = cytotoxicity in COV362 ovarian cancer cells, dose response, cytotoxicity control for PAX8 inhibitor project, cell-based, plate reader, dry powder, SA12 (AID 743144); assay type: functional
# [25] = cytotoxicity in OV-90 ovarian cancer cells, dose response, PAX8 inhibitor project, cell-based, plate reader, dry powder, SA8 (AID 743149); assay type: functional
# [26] = cytotoxicity dependent on PAX8, dose response, cell-based, plate reader, dry powder (AID 743049); assay type: functional
# [27] = PAX5 activity inhibitors, dose response, selectivity assay for PAX8 inhibitor project, cell-based, plate reader, dry powder samples (AID 743047); assay type: functional;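 note: HEK293 cells carrying a Pax5 driven CD19 promoter luciferase reporter; potency of inhibitors that lower reporter luminescence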
# Paired box protein Pax-8 = Paired box protein Pax-8 (Homo sapiens, UniProt Q06710); experiment: inhibitors of PAX8-driven TPO luciferase reporter, dose response, RMG-I cells, cherry-pick (AID 687027); assay type: functional, cell-based;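 note: luciferase reporter driven by Pax8 target thyroperoxidase promoter measured by SteadyGlo luminescence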
# Hexokinase HKDC1 = biological target: T2, Hexokinase HKDC1 (Homo sapiens, UniProt Q2TB90); experiment: HKDC1 hexokinase inhibitors, dose response, biochemical, W721R variant (AID 504729); assay type: functional
# T2 sequence (Q2TB90 whole entry): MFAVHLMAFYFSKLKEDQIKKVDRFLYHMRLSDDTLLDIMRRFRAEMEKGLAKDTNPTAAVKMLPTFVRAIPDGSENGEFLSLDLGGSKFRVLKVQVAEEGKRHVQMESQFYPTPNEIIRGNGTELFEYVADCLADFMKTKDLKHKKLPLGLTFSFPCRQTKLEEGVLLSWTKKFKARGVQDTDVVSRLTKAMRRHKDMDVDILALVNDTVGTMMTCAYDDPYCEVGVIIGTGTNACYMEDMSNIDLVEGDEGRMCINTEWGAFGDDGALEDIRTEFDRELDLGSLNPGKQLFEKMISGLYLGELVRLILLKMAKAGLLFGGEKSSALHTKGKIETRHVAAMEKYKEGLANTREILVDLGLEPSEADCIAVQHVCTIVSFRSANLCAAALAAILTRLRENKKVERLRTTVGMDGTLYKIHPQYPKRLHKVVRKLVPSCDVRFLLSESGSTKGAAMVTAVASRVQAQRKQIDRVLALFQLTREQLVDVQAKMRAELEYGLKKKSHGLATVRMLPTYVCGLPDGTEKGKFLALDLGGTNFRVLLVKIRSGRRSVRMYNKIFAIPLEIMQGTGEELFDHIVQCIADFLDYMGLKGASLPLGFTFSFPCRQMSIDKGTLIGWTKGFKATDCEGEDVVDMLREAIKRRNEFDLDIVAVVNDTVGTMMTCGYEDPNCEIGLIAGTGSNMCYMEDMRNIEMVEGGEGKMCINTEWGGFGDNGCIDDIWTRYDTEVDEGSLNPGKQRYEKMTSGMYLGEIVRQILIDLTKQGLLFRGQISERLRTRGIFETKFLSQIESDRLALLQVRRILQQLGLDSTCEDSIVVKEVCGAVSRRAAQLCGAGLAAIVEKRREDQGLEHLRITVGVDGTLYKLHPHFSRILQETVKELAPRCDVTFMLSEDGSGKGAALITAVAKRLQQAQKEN
# [28] = biological target: T3, DNA repair protein RAD52 homolog (Homo sapiens, UniProt P43351); assay type: functional, biochemical
# T3 sequence (P43351 whole entry): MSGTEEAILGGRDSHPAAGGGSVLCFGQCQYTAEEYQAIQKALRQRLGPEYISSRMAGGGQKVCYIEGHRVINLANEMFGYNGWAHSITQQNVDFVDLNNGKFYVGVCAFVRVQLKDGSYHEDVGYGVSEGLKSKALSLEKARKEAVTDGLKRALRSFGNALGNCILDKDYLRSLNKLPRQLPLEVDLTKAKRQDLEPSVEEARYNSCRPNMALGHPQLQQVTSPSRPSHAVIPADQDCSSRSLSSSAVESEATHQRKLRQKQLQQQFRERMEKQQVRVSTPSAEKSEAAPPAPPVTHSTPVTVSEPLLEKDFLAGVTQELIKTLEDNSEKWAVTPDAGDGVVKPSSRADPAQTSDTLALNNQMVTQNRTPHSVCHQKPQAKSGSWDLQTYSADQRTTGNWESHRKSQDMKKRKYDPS
# [29] = non-specific cell cytotoxicity, dose response, cytotoxicity control for PAX8 inhibitor project, plate reader, dry powder samples (AID 743021); assay type: functional, cell-based
# Melanocortin receptor 4 = Melanocortin receptor 4 (Homo sapiens, UniProt P32245); assay type: functional, cell-based;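 note: Cell-based assay with luminescence read-out, confirmatory dose-response testing for agonist activity of biased ligands at MC4R; human U2OS cells with tagged receptor and beta-arrestin; potency of agonists that increase receptor coupling to beta-arrestin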
# [30] = biological target: Cyclin-dependent kinase 5/CDK5 activator 1 (Homo sapiens, UniProt Q00535); experiment: CDK5/p35 kinase inhibitors, dose response, biochemical, cherry-picked samples, set 2 (AID 504545)
# [31] = cytotoxicity in HPDE-C7 cells, cell-based, fluorescence, HTS (AID 430); assay type: functional; conditions: Homo sapiens
# [32] = cytotoxicity in KRAS-transformed pancreatic duct cells, primary screen, cell-based, fluorescence, HTS (AID 431); assay type: functional; conditions: Homo sapiens;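 note: cell line used: HPDE-C7K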
# Caspase-6 = biological target: T4, Caspase-6 (Homo sapiens, UniProt P55212); experiment: human caspase-6 inhibitors, dose response, biochemical, VEID-R110 fluorescence, cherry-pick (AID 720632)
# T4 sequence (P55212 whole entry): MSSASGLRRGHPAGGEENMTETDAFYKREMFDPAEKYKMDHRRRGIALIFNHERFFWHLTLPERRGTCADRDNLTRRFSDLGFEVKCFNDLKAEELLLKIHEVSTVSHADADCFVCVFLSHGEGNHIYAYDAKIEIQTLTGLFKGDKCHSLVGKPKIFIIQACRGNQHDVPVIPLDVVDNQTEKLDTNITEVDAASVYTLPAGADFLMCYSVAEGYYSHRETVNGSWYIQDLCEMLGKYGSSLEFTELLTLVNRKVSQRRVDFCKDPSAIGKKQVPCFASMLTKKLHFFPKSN
# Chain of Disintegrin and metalloproteinase domain-containing protein 17 (P78536 whole entry, the tested form may be a part): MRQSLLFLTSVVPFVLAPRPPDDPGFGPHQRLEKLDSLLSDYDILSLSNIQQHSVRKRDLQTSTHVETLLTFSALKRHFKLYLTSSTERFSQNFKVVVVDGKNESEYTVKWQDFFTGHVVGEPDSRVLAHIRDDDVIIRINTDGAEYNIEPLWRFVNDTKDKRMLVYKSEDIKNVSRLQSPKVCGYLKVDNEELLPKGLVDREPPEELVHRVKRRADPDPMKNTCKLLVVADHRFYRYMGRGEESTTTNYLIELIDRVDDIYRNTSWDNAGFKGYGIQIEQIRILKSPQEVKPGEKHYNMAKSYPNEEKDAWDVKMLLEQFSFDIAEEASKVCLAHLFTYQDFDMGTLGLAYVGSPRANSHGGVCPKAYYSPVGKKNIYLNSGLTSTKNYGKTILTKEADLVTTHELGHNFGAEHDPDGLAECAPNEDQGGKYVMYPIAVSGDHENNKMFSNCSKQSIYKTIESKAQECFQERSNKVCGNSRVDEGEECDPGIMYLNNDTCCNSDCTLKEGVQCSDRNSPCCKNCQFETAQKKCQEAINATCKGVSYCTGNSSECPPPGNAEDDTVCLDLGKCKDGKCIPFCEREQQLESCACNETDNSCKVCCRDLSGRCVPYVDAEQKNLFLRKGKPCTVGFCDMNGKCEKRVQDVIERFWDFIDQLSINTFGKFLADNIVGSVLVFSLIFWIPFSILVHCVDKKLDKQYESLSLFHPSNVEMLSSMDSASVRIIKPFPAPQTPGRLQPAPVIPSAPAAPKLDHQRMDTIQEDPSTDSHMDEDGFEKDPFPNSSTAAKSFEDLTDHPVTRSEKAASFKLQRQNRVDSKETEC
# Chain of Paired box protein Pax-8 (Q06710 whole entry): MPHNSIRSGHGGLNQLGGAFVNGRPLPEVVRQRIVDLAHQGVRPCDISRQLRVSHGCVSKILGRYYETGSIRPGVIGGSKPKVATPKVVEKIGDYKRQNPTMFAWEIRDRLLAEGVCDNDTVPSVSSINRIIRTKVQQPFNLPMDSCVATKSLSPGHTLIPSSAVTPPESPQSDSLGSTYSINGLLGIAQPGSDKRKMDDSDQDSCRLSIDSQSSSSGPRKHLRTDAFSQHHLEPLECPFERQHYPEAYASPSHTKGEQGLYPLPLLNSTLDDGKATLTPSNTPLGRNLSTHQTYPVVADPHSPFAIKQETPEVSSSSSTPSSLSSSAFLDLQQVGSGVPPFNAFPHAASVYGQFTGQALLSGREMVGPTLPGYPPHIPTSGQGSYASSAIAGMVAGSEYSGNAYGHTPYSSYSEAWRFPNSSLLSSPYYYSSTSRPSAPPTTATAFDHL
# Chain of Beta-galactosidase (Q8VNN2 whole entry): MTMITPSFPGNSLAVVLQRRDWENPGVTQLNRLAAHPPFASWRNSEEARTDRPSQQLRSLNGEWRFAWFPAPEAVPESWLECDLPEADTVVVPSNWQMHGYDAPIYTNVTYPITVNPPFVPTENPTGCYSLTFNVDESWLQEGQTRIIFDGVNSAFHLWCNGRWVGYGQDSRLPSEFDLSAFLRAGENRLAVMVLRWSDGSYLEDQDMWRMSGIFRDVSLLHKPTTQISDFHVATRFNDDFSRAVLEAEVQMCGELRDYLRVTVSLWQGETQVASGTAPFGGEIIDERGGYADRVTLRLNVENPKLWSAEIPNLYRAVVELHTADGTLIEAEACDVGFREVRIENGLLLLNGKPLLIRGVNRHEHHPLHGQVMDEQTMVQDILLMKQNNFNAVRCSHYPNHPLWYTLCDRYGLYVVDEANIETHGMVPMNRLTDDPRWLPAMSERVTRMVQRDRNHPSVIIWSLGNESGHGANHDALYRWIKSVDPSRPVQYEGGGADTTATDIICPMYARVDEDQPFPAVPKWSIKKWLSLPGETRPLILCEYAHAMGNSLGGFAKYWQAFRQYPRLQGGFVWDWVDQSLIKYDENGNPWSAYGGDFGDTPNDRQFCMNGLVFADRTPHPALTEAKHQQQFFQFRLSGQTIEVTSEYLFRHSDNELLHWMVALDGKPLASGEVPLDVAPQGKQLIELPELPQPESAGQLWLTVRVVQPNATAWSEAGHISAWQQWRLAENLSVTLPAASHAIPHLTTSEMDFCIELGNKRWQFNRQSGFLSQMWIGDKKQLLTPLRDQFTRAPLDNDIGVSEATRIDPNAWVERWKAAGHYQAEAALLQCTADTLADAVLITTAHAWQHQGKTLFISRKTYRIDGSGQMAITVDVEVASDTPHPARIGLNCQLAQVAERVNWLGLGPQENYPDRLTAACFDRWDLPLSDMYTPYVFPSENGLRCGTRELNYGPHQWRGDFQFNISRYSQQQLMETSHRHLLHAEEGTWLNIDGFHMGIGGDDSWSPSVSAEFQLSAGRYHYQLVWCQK
# Chain of Cyclin-dependent kinase 5/CDK5 activator 1 (Q00535 whole entry): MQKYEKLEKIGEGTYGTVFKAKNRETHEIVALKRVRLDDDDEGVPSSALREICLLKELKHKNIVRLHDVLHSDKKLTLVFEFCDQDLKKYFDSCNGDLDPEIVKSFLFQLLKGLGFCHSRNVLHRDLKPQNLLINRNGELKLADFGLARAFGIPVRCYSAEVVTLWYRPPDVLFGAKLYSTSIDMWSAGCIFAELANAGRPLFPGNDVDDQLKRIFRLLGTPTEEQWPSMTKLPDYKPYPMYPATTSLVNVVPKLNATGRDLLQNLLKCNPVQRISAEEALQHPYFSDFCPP
# Chain of Cyclin-dependent kinase 5/CDK5 activator 1 (Q15078 whole entry, further chain): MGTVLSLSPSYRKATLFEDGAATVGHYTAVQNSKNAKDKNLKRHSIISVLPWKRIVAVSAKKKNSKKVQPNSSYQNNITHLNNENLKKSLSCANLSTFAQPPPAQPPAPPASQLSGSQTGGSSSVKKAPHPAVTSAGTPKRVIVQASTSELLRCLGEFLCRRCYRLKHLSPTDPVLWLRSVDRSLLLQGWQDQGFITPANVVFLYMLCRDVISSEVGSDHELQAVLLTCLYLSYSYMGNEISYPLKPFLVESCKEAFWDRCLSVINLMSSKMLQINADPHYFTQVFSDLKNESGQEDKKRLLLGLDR
# Chain of Melanocortin receptor 4 (P32245 whole entry): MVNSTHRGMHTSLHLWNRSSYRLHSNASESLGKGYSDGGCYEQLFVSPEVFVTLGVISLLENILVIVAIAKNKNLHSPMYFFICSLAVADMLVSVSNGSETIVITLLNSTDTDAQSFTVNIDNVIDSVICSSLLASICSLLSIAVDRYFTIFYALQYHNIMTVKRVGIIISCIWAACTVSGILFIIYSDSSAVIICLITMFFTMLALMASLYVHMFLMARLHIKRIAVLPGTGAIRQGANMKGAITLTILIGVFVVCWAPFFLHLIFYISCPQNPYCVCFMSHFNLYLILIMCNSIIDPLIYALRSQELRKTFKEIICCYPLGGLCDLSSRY
smiles,measurement,setting,value
O=C(Nc1ccc2c(c1)OCCO2)Nc1ccc2c(c1)OCO2,EC50,[1],> 67.6 µM (inactive)
same,IC50,[2],> 67.6 µM (inactive)
Nc1nc(CN2CCCCC2)cs1,IC50,Prothrombin,> 50 µM (not active)
CC(C)=CC1C(C(=O)OCN2C(=O)C3=C(CCCC3)C2=O)C1(C)C (stereo unspecified) [TETRAMETHRIN],IC50,[3],> 20 µM (inactive)
same,IC50,[4],> 20 µM (inactive)
same,IC50,[5],> 20 µM (inactive)
same,IC50,[6],> 20 µM (inactive)
same,IC50,[7],> 20 µM (inactive)
same,IC50,[8],> 20 µM (inactive)
same,IC50,[9],> 20 µM (inactive)
C/C(CC1CC2=C(CC1(C)C)C(C)(C)CCC2)=N\NC(N)=S (stereo unspecified),EC50,cells [10],0.139 µM (active)
same,EC50,[11],> 60 µM (not active)
same,EC50,[12],< 0.1 µM (active)
same,IC50,Beta-galactosidase,> 66.6 µM (inactive)
CCN(CC)c1ccc(NC(=O)CN2C(=O)CSc3ncccc32)c(C)c1,IC50,[13],1.33 µM (active)
same,IC50,[14],0.713 µM (active)
same,AC50,[15],10.2 µM (active)
same,AC50,[16],31.9 µM (active)
same,AC50,[17],2.17 µM (active)
same,AC50,[18],1.78 µM (active)
COc1ccccc1-c1nc(-c2ccc(Br)o2)no1,EC50,cells [19],> 67.5 µM (inactive)
same,EC50,[20],> 67.5 µM (inactive)
same,EC50,[1],> 67.5 µM (inactive)
same,IC50,[2],> 67.5 µM (inactive)
CCOC(=O)N1CCN(C(=O)C[C@H]2C[C@@]3(C(=O)OC)C(=C[C@H](C(C)C)O[C@@H]3C3CC3)N(Cc3ccc(Cl)cc3Cl)C2=O)CC1,IC50,[21],> 69.5 µM (inactive)
same,IC50,[22],16.4 µM (inactive)
COc1cccc(C#Cc2ccc([C@H]3[C@@H](C#N)N(C(=O)c4ccccn4)[C@@H]3CO)cc2)c1,AC50,[23],14.1 µM (active)
same,AC50,[24],43.7 µM (active)
same,AC50,[25],> 70 µM (inactive)
same,AC50,[26],47.3 µM (active)
same,AC50,[27],15.2 µM (active)
same,AC50,Paired box protein Pax-8,15 µM (active)
O=Cc1[nH]c2ccccc2c1N(C(=O)CCl)c1ccccc1,IC50,Hexokinase HKDC1,43.4 µM (inactive)
CN(C)CCNC(=O)c1cccc(-c2cnc3c(NC=O)cc(-c4cccc(C(F)(F)F)c4)cn23)c1,AC50,[28],2.4 µM (active)
same,AC50,[29],54.8 µM (active)
same,EC50,Melanocortin receptor 4,> 89.2 µM (inactive)
same,AC50,Paired box protein Pax-8,9.07 µM (active)
CCc1ccc(NC(=O)CO/N=C(\C)c2cc3ccccc3o2)cc1,IC50,[21],> 69.5 µM (inactive)
same,IC50,[22],> 69.5 µM (inactive)
CCOC(=O)c1ccc(NC(=O)C2CCCN(S(=O)(=O)c3ccc(F)cc3)C2)cc1 (stereo unspecified),IC50,[21],> 69.5 µM (inactive)
same,IC50,[22],> 7.72 µM (active)
O=C(Cc1ccc(O)cc1)NCCN=C(S)NCc1ccccc1,AC50,[30],27.6 µM (active)
C#CCOCCOCCOCCNc1nc(N2CCN(C(=O)Cn3cc(CC(C)O)nn3)CC2)nc(N2CCN(C(=O)[C@H](C)n3cc(CCCN=C(N)N)nn3)CC2)n1 (stereo partly specified),IC50,Prothrombin,6.8 µM (active)
Cc1ccc2nc(-c3ccccc3)cc(O)c2c1,EC50,[31],0.91 µM (active)
same,EC50,[32],1.14 µM (active)
same,EC50,[1],> 67.5 µM (inactive)
same,IC50,[2],> 67.5 µM (inactive)
COc1ccc(C2CC(c3ccccc3)=NN2C(=O)CN2CCN(Cc3ccccc3)CC2)cc1 (stereo unspecified),IC50,Prothrombin,> 50 µM (not active)
COc1ccc(CCN2CC(C(=O)NCCc3ccc(C)cc3)CC2=O)cc1OC (stereo unspecified),AC50,Caspase-6,20.1 µM (active)
COc1ccc2c(=O)c(-c3nc(C)cs3)coc2c1,EC50,cells [19],> 67.5 µM (inactive)
same,EC50,[20],> 67.5 µM (inactive)
